Assay results: patent publication US11446298B2, “Pyrimidine derivatives” (Idorsia Pharmaceuticals Ltd, priority 2017, dated 2022)

What was measured:
Assay type in all cases: cell-based
PTGER2 (EP2) = target: T1, PTGER2 (EP2) (Homo sapiens, UniProt P43116); assay: hEP2 b-Arrestin Assay (PathHunter HEK 293 PTGER2 b-arrestin cells, PGE2 5 μM); conditions: antagonistic activity, beta-arrestin assay, HEK 293 PTGER2 cells, PGE2 5 μM (EC80); read-out: hEP2 b-arr IC50
T1 construct: host or cells: HEK 293 (PathHunter, stably transfected)
Summary of the method: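 PathHunter enzyme-fragment complementation in HEK 293 cells: compounds (10 μM-2 nM or 1 μM-0.2 nM) pre-incubated 15 min at 37 °C, then 5 μM PGE2 (EC80) for 120 min at 37 °C. Chemiluminescence read after 1 h detection; IC50 from duplicate dose-response fits, means of repeats.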

PTGER4 (EP4) = target: T2, PTGER4 (EP4) (Homo sapiens, UniProt P35408); assay: hEP4 b-Arrestin Assay (PathHunter HEK 293 PTGER4 b-arrestin cells, PGE2 20 nM); conditions: antagonistic activity, beta-arrestin assay, HEK 293 PTGER4 cells, PGE2 20 nM (EC80); read-out: hEP4 b-arr IC50
T2 construct: host or cells: HEK 293 (PathHunter, stably transfected)
Description: The antagonistic activities of the compounds of formula (I) on the EP2 and EP4 receptors are also determined in accordance with the following experimental method.
The assay is using the PathHunter™ HEK 293 PTGER2 and PTGER4 b-arrestin cell lines from DiscoverX. The system is based on the Enzyme Fragment Complementation Technology. Two complementing fragments of the b-galactosidase enzyme are expressed within stably transfected cells. The larger portion of b-gal, termed EA for Enzyme Acceptor, is fused to the C-terminus of b-arrestin 2. The smaller fragment, termed ProLink™ tag, is fused to PTGER2 (EP2) or PTRGER4 (EP4) at the C-terminus. Upon activation, b-arrestin is recruited which forces the interaction of ProLink and EA, allowing complementation of the two fragments of b-gal and the formation of a functional enzyme which is capable of hydrolysing the substrate and generating a chemiluminescent signal.
The HEK 293 PTGER4 b-arrestin cells (DiscoverX 93-030-4C1) are detached from culture dishes with a cell dissociation buffer (Invitrogen, 13151-014), and collected in growing medium (GM: DMEM+Glutamax-I (Invitrogen 32430)/10% FCS, 1% Penicilin/streptomycin). 5000 cells per well of a 384 well plate (white with white bottom Greiner 781080) are seeded in 20 ul per well of GM. Plate is incubated at 37° C., 5% CO2 for 24 hours.
Stock solutions of test compounds are made at a concentration of 10 mM in DMSO, and serially diluted in DMSO to concentrations required for inhibition dose response curves (tested concentration range 10 μM-2 nM or 1 μM-0.2 nM).
PGE2 (Cayman 14010, stock solution: 100 μM in DMSO) is used as agonist at 20 nM final concentration, corresponding to EC80.
Five microliters of diluted compounds are transferred into the assay plate. Plate is pre-incubated 15 minutes at 37° C. Then five microliters of PGE2 (final conc. 20 nM) are transferred into the assay plate. Plate is incubated 120 minutes at 37° C.
PathHunter Glo Detection Kit components are thawed and mix according to manufacturer's instructions: 1 part Galacton Star Substrate with 5 parts Emerald II™ Solution, and 19 parts of PathHunter Cell Assay Buffer, respectively. Twelve μl of reagent are transferred to the assay plate and incubate for 1 hour at room temperature in the dark. Luminescence counts are read on a BMG Fluostar Optima reader according to manufacturer's instructions.
For each compound concentration calculate of the percentage of activity compared to DMSO control value as average ±STDEV. (each concentration is measured in duplicate)
IC50 values and curves are generated with XLfit software (IDBS) using Dose-Response One Site model 203. When compounds were measured multiple times, mean values are given.

EP4 = target: T3, EP4 (Homo sapiens, UniProt P35408); assay: hEP4 cAMP Assay (BT549 breast cancer cells, HTRF cAMP, PGE2 6 nM); conditions: antagonistic activity, PGE2 6 nM (EC80)
T3 construct: BT549 breast cancer cells, express high endogenous EP4 levels and very low EP2 levels; host or cells: BT549 breast cancer cells
Summary of the method: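 Antagonism is measured as inhibition of PGE2 (6 nM final, EC80) cAMP accumulation in EP4-expressing BT549 breast cancer cells, after a 45 min room-temperature compound pre-incubation and 30 min agonist step, with 2 mM IBMX present. HTRF ratio gives cAMP relative to DMSO; IC50 fitted, means over repeat runs.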

EP2 = target: T4, EP2 (Homo sapiens, UniProt P43116); assay: hEP2 cAMP Assay (SF295 glioblastoma cells, HTRF cAMP, PGE2 75 nM); conditions: antagonistic activity, PGE2 75 nM (EC80)
T4 construct: SF295 glioblastoma cells express high endogenous EP2 and no EP4; host or cells: SF295 glioblastoma cells
Summary of the method: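 IC50 values derive from duplicate-point curves of percent cAMP relative to DMSO, read by HTRF (665/620 nm) against a cAMP calibrator. Compounds (30 μM to 0.01 nM ranges) were given 45 min at room temperature before 30 min with 75 nM PGE2, in EP2-only SF295 cells with 2 mM IBMX.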

T1 sequence (P43116 whole entry): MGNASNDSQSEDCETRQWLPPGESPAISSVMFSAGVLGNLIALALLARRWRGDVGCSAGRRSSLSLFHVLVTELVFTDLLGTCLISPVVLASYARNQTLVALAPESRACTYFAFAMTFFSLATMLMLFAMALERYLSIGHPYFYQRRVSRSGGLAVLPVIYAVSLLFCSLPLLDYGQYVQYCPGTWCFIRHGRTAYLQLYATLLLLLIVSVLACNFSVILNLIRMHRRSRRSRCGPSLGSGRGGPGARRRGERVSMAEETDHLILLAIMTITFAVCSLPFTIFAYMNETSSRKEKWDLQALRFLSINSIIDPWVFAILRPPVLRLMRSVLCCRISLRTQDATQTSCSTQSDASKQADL
T2 sequence (P35408 whole entry): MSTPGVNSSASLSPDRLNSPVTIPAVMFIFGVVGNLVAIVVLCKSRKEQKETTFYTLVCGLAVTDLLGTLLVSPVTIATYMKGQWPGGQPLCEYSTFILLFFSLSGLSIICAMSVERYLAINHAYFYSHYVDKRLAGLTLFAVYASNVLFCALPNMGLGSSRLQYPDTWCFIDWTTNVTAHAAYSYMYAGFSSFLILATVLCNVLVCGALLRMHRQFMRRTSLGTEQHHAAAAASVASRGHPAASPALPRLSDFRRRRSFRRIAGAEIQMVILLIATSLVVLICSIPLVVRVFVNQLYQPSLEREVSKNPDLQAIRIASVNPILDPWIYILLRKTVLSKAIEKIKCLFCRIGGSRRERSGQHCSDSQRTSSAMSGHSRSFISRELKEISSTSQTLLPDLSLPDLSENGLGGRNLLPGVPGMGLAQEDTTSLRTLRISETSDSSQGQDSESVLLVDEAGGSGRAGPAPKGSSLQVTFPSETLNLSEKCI
T4 sequence (P43116 whole entry): as the sequence (P43116 whole entry) above
T3 sequence (P35408 whole entry): as the sequence (P35408 whole entry) above

Row | Structure (SMILES) | IC50 (PTGER2 (EP2)) | IC50 (PTGER4 (EP4)) | IC50 (EP4) | IC50 (EP2)
1 | CCOc1cc(-c2cc(NCCc3ccc(Br)c4ccn(C)c34)ncn2)ccc1CC(=O)O [Example 161, (4-{6-[2-(4-Bromo-1-methyl-1H-indol-7-yl)-ethylamino]-pyrimidin-4-yl}-2-ethoxy-phenyl)-acetic acid] | 628 nM | 363 nM |  | 
2 | CSc1cc(-c2cc(NCCc3c(C)ccc4c3ccn4C)ncn2)ccc1C(=O)O [Example 176, 4-{6-[2-(1,5-Dimethyl-1H-indol-4H)-ethylamino]-pyrimidin-4-yl}-2-methylsulfanyl-benzoic acid] | 3 nM | 550 nM |  | 
3 | COc1ccc2c(ccn2C)c1CCNc1cc(-c2ccc(C(=O)O)c(SC)c2)ncn1 [Example 175, 4-{6-[2-(5-Methoxy-1-methyl-1H-indol-4-yl)-ethylamino]-pyrimidin-4-yl}-2-methylsulfanyl-benzoic acid] | 3 nM | 245 nM |  | 
4 | CCOc1cc(-c2cc(NCCc3c(OC)ccc4sccc34)ncn2)ccc1CC(=O)O [Example 166, (2-Ethoxy-4-{6-[2-(5-methoxy-benzo[b]thiophen-4-yl)-ethylamino]-pyrimidin-4-yl}-phenyl)-acetic acid] | 51 nM | 216 nM |  | 
5 | CCOc1cc(-c2cc(NCCc3c(OC)ccc4c3ccn4C)ncn2)ccc1CC(=O)O [Example 167, (2-Ethoxy-4-{6-[2-(5-methoxy-1-methyl-1H-indol-4-yl)-ethylamino]-pyrimidin-4-yl}-phenyl)-acetic acid] | 69 nM | 758 nM |  | 
6 | CCOc1ccc2sccc2c1CCNc1cc(-c2ccc(C(=O)O)c(SC)c2)ncn1 [Example 177, 4-{6-[2-(5-Ethoxy-benzo[b]thiophen-4-yl)-ethylamino]-pyrimidin-4-yl}-2-methylsulfanyl-benzoic acid] | 4 nM | 334 nM |  | 
7 | CSc1cc(-c2cc(NCCc3ccc(Br)c4ccn(C)c34)ncn2)ccc1C(=O)O [Example 169, 4-{6-[2-(4-Bromo-1-methyl-1H-indol-7-yl)-ethylamino]-pyrimidin-4-yl}-2-methylsulfanyl-benzoic acid] | 230 nM | 350 nM |  | 
8 | CCOc1cc(-c2cc(NCCc3ccc(C(F)F)c4ccccc34)ncn2)ccc1OCC(=O)O [Example 73, (4-{6-[2-(4-Difluoromethyl-naphthalen-1-yl)-ethylamino]-pyrimidin-4-yl}-2-ethoxy-phenoxy)-acetic acid] |  | 34 nM | 102 nM | 465 nM
9 | CCOc1cc(-c2cc(NCCc3ccc(Br)c4ccccc34)ncn2)ccc1CC(=O)O [Example 162, (4-{6-[2-(4-Bromo-naphthalen-1-yl)-ethylamino]-pyrimidin-4-yl}-2-ethoxy-phenyl)-acetic acid] | 219 nM | 114 nM |  | 
10 | CCOc1cc(-c2cc(NCCc3cc(F)cc4sccc34)ncn2)ccc1CC(=O)O [Example 165, (2-Ethoxy-4-{6-[2-(6-fluoro-benzo[b]thiophen-4-yl)-ethylamino]-pyrimidin-4-yl}-phenyl)-acetic acid] | 864 nM | 555 nM |  | 
11 | CSc1cc(-c2cc(NCCc3c(Br)cc(F)c4ccccc34)ncn2)ccc1C(=O)O [Example 170, 4-{6-[2-(2-Bromo-4-fluoro-naphthalen-1-yl)-ethylamino]-pyrimidin-4-yl}-2-methylsulfanyl-benzoic acid] | 474 nM | 407 nM |  | 
12 | CCOc1cc(-c2cc(NCCc3ccc(C)c4ccccc34)ncn2)ccc1CC(=O)O [Example 99, (2-Ethoxy-4-{6-[2-(4-methyl-naphthalen-1-yl)-ethylamino]-pyrimidin-4-yl}-phenyl)-acetic acid] |  | 177 nM | 225 nM | 765 nM
13 | COc1ccc2sccc2c1CCNc1cc(-c2ccc(C(=O)O)c(SC)c2)ncn1 [Example 174, 4-{6-[2-(5-Methoxy-benzo[b]thiophen-4-yl)-ethylamino]-pyrimidin-4-yl}-2-methylsulfanyl-benzoic acid] | 8 nM | 298 nM |  | 
14 | CSc1cc(-c2cc(NCCc3cccc4c(F)cccc34)ncn2)ccc1C(=O)O [Example 172, 4-{6-[2-(5-Fluoro-naphthalen-1-yl)-ethylamino]-pyrimidin-4-yl}-2-methylsulfanyl-benzoic acid] | 45 nM | 605 nM |  | 

Next, values leading:

Row | IC50 (PTGER2 (EP2)) | IC50 (PTGER4 (EP4)) | IC50 (EP4) | IC50 (EP2) | Structure (SMILES)
15 | 142 nM | 871 nM |  |  | CSc1cc(-c2cc(NCCc3cc(F)cc4ccccc34)ncn2)ccc1C(=O)O [Example 178, 4-{6-[2-(3-Fluoro-naphthalen-1-yl)-ethylamino]-pyrimidin-4-yl}-2-methylsulfanyl-benzoic acid]
16 | 14 nM | 200 nM |  |  | CCOc1cc(-c2cc(NCCc3c(OC)ccc4sccc34)ncn2)ccc1C(=O)O [Example 185, 2-Ethoxy-4-{6-[2-(5-methoxy-benzo[b]thiophen-4-yl)-ethylamino]-pyrimidin-4-yl}-benzoic acid]
17 | 441 nM | 235 nM |  |  | CCOc1cc(-c2cc(NCCc3ccc(Br)c4ccn(C)c34)ncn2)ccc1C(=O)O [Example 180, 4-{6-[2-(4-Bromo-1-methyl-1H-indol-7-yl)-ethylamino]-pyrimidin-4-yl}-2-ethoxy-benzoic acid]
18 | 962 nM | 887 nM |  |  | CCOc1cc(-c2cc(NCCc3c(Br)cc(F)c4ccccc34)ncn2)ccc1C(=O)O [Example 181, 4-{6-[2-(2-Bromo-4-fluoro-naphthalen-1-yl)-ethylamino]-pyrimidin-4-yl}-2-ethoxy-benzoic acid]
19 | 60 nM | 701 nM |  |  | CCOc1cc(-c2cc(NCCc3cccc4c(F)cccc34)ncn2)ccc1C(=O)O [Example 183, 2-Ethoxy-4-{6-[2-(5-fluoro-naphthalen-1-yl)-ethylamino]-pyrimidin-4-yl}-benzoic acid]
20 | 5 nM | 16 nM |  |  | CCOc1cc(-c2cc(NCCc3c(OC)ccc4ccccc34)ncn2)ccc1-c1noc(=S)[nH]1 [Example 189, 3-(2-Ethoxy-4-{6-[2-(2-methoxy-naphthalen-1-yl)-ethylamino]-pyrimidin-4-yl}-phenyl)-[1,2,4]-oxadiazole-5(4H)-thione]
21 | 9 nM | 500 nM |  |  | CCOc1cc(-c2cc(NCCc3c(OC)ccc4c3ccn4C)ncn2)ccc1C(=O)O [Example 186, 2-Ethoxy-4-{6-[2-(5-methoxy-1-methyl-1H-indol-4-yl)-ethylamino]-pyrimidin-4-yl}-benzoic acid]
22 | 10 nM | 563 nM |  |  | CCOc1cc(-c2cc(NCCc3c(OCC)ccc4sccc34)ncn2)ccc1C(=O)O [Example 187, 2-Ethoxy-4-{6-[2-(5-ethoxy-benzo[b]thiophen-4-yl)-ethylamino]-pyrimidin-4-yl}-benzoic acid]
23 | 23 nM | 219 nM |  |  | CCOc1cc(-c2cc(NCCc3c(OC)ccc4ccccc34)ncn2)ccc1Cc1noc(=O)[nH]1 [Example 191, 3-(2-Ethoxy-4-{6-[2-(2-methoxy-naphthalen-1-yl)-ethylamino]-pyrimidin-4-yl}-benzyl)-[1,2,4]oxadiazol-5(4H)-one]
